Laboratory results: patent US20260048064A1, “AMORPHOUS SOLID DISPERSIONS COMPRISING NAPORAFENIB” (Novartis AG, priority 2022, published 2026)
≈ marks a conversion by molar mass, not a printed value. Where a name gives a salt, the structure may show the parent alone. Each block holds one compound with its values, some of them ahead of it.

Columns and labels:
Format in all cases: physicochemical
[1] = Stability in aqueous solutions (Table 1A)
Description: (§1) Several physical forms of Compound A were analyzed: the free base, tartrate salt, and tosylate salt.

[2] = Bulk stability at 80° C./75% RH, 1 week (Table 1A)
Description: as §1

[3] = Light stability, 1.2 MLux h (Table 1A)
Description: as §1

[4] = Solubility at 25° C. in SGF, FaSSIF, FeSSIF (Table 1A)
Description: as §1

[5] = Hygroscopicity (Table 1A)
Description: as §1

Polymorphism (Table 1A) = assay: Polymorphism (Table 1A)
Description: as §1

[6] = Solubility at various pH and in biorelevant media (Table 1B)
From the text: Compound A has very limited solubility in all pHs.

[7] = Photostability under light stress (Table 1C); details: RT, light dose 1.2 Lux·h*10^6
From the text: The photostability of crystalline hydrate and crystalline tosylate forms of Compound A under photo, or light stress is provided in Table 1C.

[8] = Bulk solid stability under thermal stress (Table 1D); details: 5 days
[9] = Stability in solution/suspension at pH 1, 4.5, 7.4 under heat (Table 1E); details: 5 days

Stability in aqueous solutions ([1]; pH 1.2 and pH 10.0): Significant degradation
Stability in aqueous solutions ([1]; pH 2.9 to 6.8): Relatively stable at pH
Bulk stability (degradation) [2]: week), slight
Light stability (1.2 MLux h) [3]: Slight degradation
Solubility at 25° C. ([4]; FaSSIF): 1.4 µg/mL (≈ 2.79 µM)
pH final of solubility test ([4]; FaSSIF): 6.91
pH final of solubility test ([4]; FeSSIF): 6.08
Solubility ([4]; FeSSIF, 25 °C, thermodynamic from solid): 137 µg/mL (≈ 273 µM)
Solubility at 25° C. ([4]; SGF): 2.1 µg/mL (≈ 4.18 µM)
pH final of solubility test ([4]; SGF): 2.02
Hygroscopicity [5]: Low
Polymorphism (Polymorphism (Table 1A)): Yes
Solubility ([6]; FaSSIF V2): 0.035 mg/mL (≈ 69.7 µM)
pH final of solubility test ([6]; FaSSIF V2): 6.51
Solubility ([6]; FeSSIF V2): 0.576 mg/mL (≈ 1150 µM)
pH final of solubility test ([6]; FeSSIF V2): 5.82
Solubility ([6]; SGF pH 2.0): 0.699 mg/mL (≈ 1390 µM)
pH final of solubility test ([6]; SGF pH 2.0): 1.86
Solubility ([6]; Water): 0.002 mg/mL (≈ 3.98 µM)
pH final of solubility test ([6]; Water): 7.33
Solubility ([6]; pH 1): 0.4 mg/mL (≈ 796 µM)
pH final of solubility test ([6]; pH 1): 1.07
Solubility ([6]; pH 2): 0.14 mg/mL (≈ 279 µM)
pH final of solubility test ([6]; pH 2): 1.96
pH final of solubility test ([6]; pH 4.5): 4.56
Solubility ([6]; pH 4.5, aqueous buffer, thermodynamic from solid, pH 4.5, read-out: Solubility): 0.002 mg/mL (≈ 3.98 µM)
pH final of solubility test ([6]; pH 7.4): 7.33
Solubility ([6]; pH 7.4, aqueous buffer, thermodynamic from solid, pH 7.4, read-out: Solubility): 0.001 mg/mL (≈ 1.99 µM)
Structure (SMILES): Cc1ccc(NC(=O)c2ccnc(C(F)(F)F)c2)cc1-c1cc(OCCO)nc(N2CCOCC2)c1 [Compound A (free base), N-(3-(2-(2-hydroxyethoxy)-6-morpholinopyridin-4-yl)-4-methylphenyl)-2-(trifluoromethyl)isonicotinamide]

Solubility ([6]; FaSSIF V2): 0.004 mg/mL
pH final of solubility test ([6]; FaSSIF V2): 6.44
Solubility ([6]; FeSSIF V2): 0.047 mg/mL
pH final of solubility test ([6]; FeSSIF V2): 5.6
Solubility ([6]; SGF pH 2.0): 0.025 mg/mL
pH final of solubility test ([6]; SGF pH 2.0): 2.19
Solubility ([6]; Water): 0.001 mg/mL
pH final of solubility test ([6]; Water): 5.99
Solubility ([6]; pH 1): 0.17 mg/mL
pH final of solubility test ([6]; pH 1): 1.23
Solubility ([6]; pH 4.5): 0.001 mg/mL
pH final of solubility test ([6]; pH 4.5): 4.0
Solubility ([6]; pH 7.0): 0.0008 mg/mL
pH final of solubility test ([6]; pH 7.0): 7.0
Appearance/XRPD/DSC ([7]; Bulk): No change
Degradation Products [%] (HPLC) ([7]; Bulk): <1.0%
Degradation Products [%] (HPLC) ([7]; Ethanol): 18%
Structure (SMILES): Cc1ccc(NC(=O)c2ccnc(C(F)(F)F)c2)cc1-c1cc(OCCO)nc(N2CCOCC2)c1 [Compound A (hydrate), N-(3-(2-(2-hydroxyethoxy)-6-morpholinopyridin-4-yl)-4-methylphenyl)-2-(trifluoromethyl)isonicotinamide]

Stability in aqueous solutions ([1]; pH 1.2 and pH 10.0): Significant degradation
Stability in aqueous solutions ([1]; pH 2.9 to 6.8): Relatively stable at pH
Bulk stability (degradation) [2]: week), significant
Light stability (1.2 MLux h) [3]: Significant degradation
Solubility at 25° C. ([4]; FaSSIF): 0.6 µg/mL
pH final of solubility test ([4]; FaSSIF): 3.54
Solubility at 25° C. ([4]; FeSSIF): 109.2 µg/mL
pH final of solubility test ([4]; FeSSIF): 4.93
Solubility at 25° C. ([4]; SGF): 53.5 µg/mL
pH final of solubility test ([4]; SGF): 1.89
Hygroscopicity [5]: High
Polymorphism (Polymorphism (Table 1A)): Potential issue
Structure (SMILES): Cc1ccc(NC(=O)c2ccnc(C(F)(F)F)c2)cc1-c1cc(OCCO)nc(N2CCOCC2)c1 [Compound A (tartrate salt), N-(3-(2-(2-hydroxyethoxy)-6-morpholinopyridin-4-yl)-4-methylphenyl)-2-(trifluoromethyl)isonicotinamide]

Bulk stability (degradation) [2]: 75% RH (1 week), no
Bulk stability (physical) [2]: Physically unstable at 80° C./
Light stability (1.2 MLux h) [3]: No degradation
Solubility at 25° C. ([4]; FaSSIF): 1.1 µg/mL
pH final of solubility test ([4]; FaSSIF): 6.66
Solubility at 25° C. ([4]; FeSSIF): 115.8 µg/mL
pH final of solubility test ([4]; FeSSIF): 5.58
Solubility at 25° C. ([4]; SGF): 10 µg/mL
pH final of solubility test ([4]; SGF): 1.75
Hygroscopicity [5]: Low
Polymorphism (Polymorphism (Table 1A)): No issue encountered
Solubility ([6]; FaSSIF V2): 0.016 mg/mL
pH final of solubility test ([6]; FaSSIF V2): 6.07
Solubility ([6]; FeSSIF V2): 0.051 mg/mL
pH final of solubility test ([6]; FeSSIF V2): 5.41
Solubility ([6]; SGF pH 2.0): 0.029 mg/mL
pH final of solubility test ([6]; SGF pH 2.0): 2.02
Solubility ([6]; Water): 5.14 mg/mL
pH final of solubility test ([6]; Water): 2.71
Solubility ([6]; pH 1): 0.106 mg/mL
pH final of solubility test ([6]; pH 1): 1.23
Solubility ([6]; pH 4.5): 0.002 mg/mL
pH final of solubility test ([6]; pH 4.5): 3.85
Solubility ([6]; pH 7.0): 0.002 mg/mL
pH final of solubility test ([6]; pH 7.0): 6.83
Appearance/XRPD/DSC ([7]; Bulk): No change
Degradation Products [%] (HPLC) ([7]; Bulk): <1.0%
Degradation Products [%] (HPLC) ([7]; Ethanol): 97%
Appearance/XRPD/DSC ([8]; 50 ° C.): No change
Parent remaining [%] (HPLC) ([8]; 50 ° C.): >99%
Appearance/XRPD/DSC ([8]; 80 ° C.): No change
Parent remaining [%] (HPLC) ([8]; 80 ° C.): >99%
Appearance/XRPD/DSC ([8]; RT): No change
Parent remaining [%] (HPLC) ([8]; RT): >99%
Parent remaining [%] (HPLC) ([9]; pH 1, 50 ° C.): 23%
Parent remaining [%] (HPLC) ([9]; pH 1, 80 ° C.): 0.2%
Parent remaining [%] (HPLC) ([9]; pH 1, RT): 97%
Parent remaining [%] (HPLC) ([9]; pH 4.5, 50 ° C.): >99%
Parent remaining [%] (HPLC) ([9]; pH 4.5, 80 ° C.): 98.6%
Parent remaining [%] (HPLC) ([9]; pH 4.5, RT): >99%
Parent remaining [%] (HPLC) ([9]; pH 7.4, 50 ° C.): 97%
Parent remaining [%] (HPLC) ([9]; pH 7.4, 80 ° C.): 74%
Parent remaining [%] (HPLC) ([9]; pH 7.4, RT): >99%
Structure (SMILES): Cc1ccc(NC(=O)c2ccnc(C(F)(F)F)c2)cc1-c1cc(OCCO)nc(N2CCOCC2)c1 [Compound A (tosylate salt), N-(3-(2-(2-hydroxyethoxy)-6-morpholinopyridin-4-yl)-4-methylphenyl)-2-(trifluoromethyl)isonicotinamide]
